Where two headings read alike, the source gives them in different places.
How the values were obtained:
[1] = system: various cancer cells; details: various cancer cells in vitro; versus irinotecan; cited from earlier work
[2] = versus doxorubicin; cited from earlier work
[3] = system: KG1a human AML cell line; experiment: Phagocytosis assay with THP1-derived macrophages; type: cell-based; details: untreated or doxorubicin-treated cells; 2 hrs incubation; versus isotype control (IgG1)
Description: THP1 cells transduced with mCherry were differentiated into macrophages following previously established procedures. The macrophages were then incubated with non-treated or doxorubicin-treated KG1a human AML cell line transduced with EGFP in the presence of either isotype control (IgG1) or AnnexinV-IgG1Fc. After 2 hrs of incubation, the macrophages and the KG1a cells they have engulfed were counted.
The ability of THP1-derived macrophages to phagocytose control or doxorubicin-treated […] cells was examined. […] Representative fluorescence images of phagocytosis assay. THP1 cells transduced with mCherry were differentiated into macrophages following previously established procedures. The cells were then incubated with non-treated or doxorubicin-treated KG1a human AML cell line transduced with EGFP in the presence of either isotype control (IgG1) or AnnexinV-IgG1Fc. After 2 hrs of incubation, the macrophages and the KG1a cells they have engulfed were counted (FIG. 2A). Quantitative estimates of phagocytosis of KG1a cells by THP1-derived macrophages, the phagocytic index was calculated as: (Average number of KG1a cells engulfed per macrophage)×(percentage of macrophages which have engulfed KG1a cells)×[…] (FIG. 2B).

[4] = system: c1498 AML; experiment: Survival of C57BL/6 mice injected with c1498 AML cells; type: in vivo; details: combination: cytarabine 100 mg/kg i.p. every 12 hrs for 3 times, then Annexin V-Fc i.p. 4 times at 72 hours intervals
Description: About 2×10^5 c1498 cells were injected into the tail vein of C57BL/6 mice. At 24 hrs after the injection, the mice were treated with 100 mg/kg cytarabine (injected i.p. every 12 hrs for 3 times). At 24 hrs after the last treatment, Annexin V-Fc was given i.p. 4 times at 72 hours intervals. The mice were then observed and sacrificed until they were moribund. Shown were the survival of different mice after they were treated with different antibody and drug combinations.
Whether Annexin V-IgG1Fc fusion protein can enhance the treatment of c1498 AML in syngeneic mice (C57BL/6) in combination with cytarabine, a commonly used drug for AML treatment, was examined. […] Here, about 2×10^5 c1498 cells were injected into the tail vein of C57BL/6 mice. At 24 hrs after the injection, the mice were treated with 100 mg/kg cytarabine (injected i.p. every 12 hrs for 3 times). At 24 hrs after the last treatment, Annexin V-Fc was given i.p. 4 times at 72 hours intervals. The mice were then observed and sacrificed until they are moribund.

[5] = system: c1498 murine AML (Acute Myeloid Leukemia) cells; experiment: Survival of FACS-sorted phosphatidylserine-positive c1498 AML cells; type: cell-based; details: Mus musculus, c1498 cells treated with cytarabine (1 μM) for 24 hrs, estimated from growth rates
Text: FIG. 1A-FIG. 1C show the survival of phosphatidylserine-expressing AML cells. […] The rectangles indicate the sorted cells. […] About 1000 each of the sorted cells were placed into multi-well plates. When the cells reached sufficient numbers, they were counted at different time points to measure their growth rates. The growth rates were then used to estimate the initial live cell numbers. The following formula was used to calculate the minimal initial live cell numbers: Minimal initial cell number=Total cell population/(growth rate*t)(days to reach the current cell number).
To determine whether cells expression high-level of PS expression on the cell surface are destined to die, the viability of c1498 murine AML (Acute Myeloid Leukemia) cells treated with cytarabine (part of a classical chemotherapy regimen for human AML) was examined. Specifically, whether cell surface PS-expressing acute myelocytic leukemia (AML) cells survived was examined. FACS was used to identify and sort cells with high cell surface PS-expression and the ability to survive was measured. FIG. 1A-FIG. 1B). In FIG. 1A, FACS sorting of untreated c1498 cells (in DMEM with 8% FBS). The rectangles indicate the sorted cells. In FIG. 1B, FACS sorting of c1498 cells treated with cytarabine (1 μM) for 24 hrs). […] When the cells reached sufficient numbers, the cells were counted at different time points to measure growth rates. […]

CCc1c2c(nc3ccc(O)cc13)-c1cc3c(c(=O)n1C2)COC(=O)[C@]3(O)CC [SN-38, 7-ethyl-10-hydroxy-camptothecin]
cytotoxic activity relative to irinotecan [1]: up to 1,000 fold

calicheamicin
potency relative to doxorubicin [2]: approximately 4000 times

Annexin V-IgG1Fc fusion protein: Annexin V fused to the Fc domain of IgG1; SEQ ID NO:85 is the form with secretion signal
phagocytosis of AML cells by THP1-derived macrophages (phagocytic index) [3]: effectively boosted the phagocytosis | median survival of host mice [4]: > 62 days

Nc1ccn([C@@H]2O[C@H](CO)[C@@H](O)[C@@H]2O)c(=O)n1 [cytarabine]
viability at 1 µM ([5]; read-out: proportion of PS+7AAD+ c1498 cells that remained viable and could proliferate): ~8% | viability at 1 µM ([5]; read-out: proportion of PS+7AAD- c1498 cells that remained viable and could proliferate): ~25%
